Results as given in EP0326066A2, “Condensed diazepinones, process for their preparation and medicaments containing them” (Dr. Karl Thomae GmbH, priority 1988, dated 1989).

Legend:
[1] = molecular target: muscarinischen Rezeptoren (Großhirnrinde); assay: Receptor binding test, ³H-NMS displacement, cerebral cortex homogenate; set-up: species or system Sprague-Dawley-Ratten; details: rat cerebral cortex homogenate; 0,3 n molar ³H-NMS; 30°C, 45 min; read-out: Rezeptor-Bindungs-Tests IC₅₀ Cortex
Protocol: (§1) Das Gesamtherz wurde […] Organe wurden abschließend in einem Potter homogenisiert. […] Die Inkubation der Organhomogenate erfolgte bei einer bestimmten Konzentration des Radioliganden und […] Testsubstanzen im Eppendorf-Zentrifugenröhrchen bei 30°C. Die Inkubationsdauer betrug 45 Minuten. Als Radioligand wurde 0,3 n molar 3H-N-Methylscopolamin (3H-NMS) verwendet. Die Inkubation wurde durch Zugabe von […] Puffer mit nachfolgender Vakuumfiltration beendet. Die Filter […] Puffer gespült und […] Summe von spezifischer und unspezifischer Bindung von 3H-NMS. Der Anteil der unspezifischen Bindung wurde definiert als jene Radioaktivität, die in Anwesenheit von 1 μ molar Quinuclidinylbenzilat gebunden wurde. […]. Die IC50-Werte der nicht-markierten Testsubstanzen […] jene Konzentration der Testsubstanz, bei welcher die spezifische Bindung von 3H-NMS an die muscarinischen Rezeptoren in den verschiedenen Organen um 50 % gehemmt wurde. Die Ergebnisse sind aus der Tabelle 1 zu […].

[2] = molecular target: T1, muscarinischen Rezeptoren (Gesamtherz) (Rattus norvegicus, UniProt P10980); assay: Receptor binding test, ³H-NMS displacement, whole heart homogenate; set-up: species or system Sprague-Dawley-Ratten; details: 0,3 n molar ³H-NMS, 30°C, 45 min, read-out: Rezeptor-Bindungs-Tests IC₅₀ Herz
T1 construct: Das Gesamtherz wurde mit einer Schere zerkleinert; from tissue; host or cells: rat whole heart homogenate
T1 sequence (P10980 1-466): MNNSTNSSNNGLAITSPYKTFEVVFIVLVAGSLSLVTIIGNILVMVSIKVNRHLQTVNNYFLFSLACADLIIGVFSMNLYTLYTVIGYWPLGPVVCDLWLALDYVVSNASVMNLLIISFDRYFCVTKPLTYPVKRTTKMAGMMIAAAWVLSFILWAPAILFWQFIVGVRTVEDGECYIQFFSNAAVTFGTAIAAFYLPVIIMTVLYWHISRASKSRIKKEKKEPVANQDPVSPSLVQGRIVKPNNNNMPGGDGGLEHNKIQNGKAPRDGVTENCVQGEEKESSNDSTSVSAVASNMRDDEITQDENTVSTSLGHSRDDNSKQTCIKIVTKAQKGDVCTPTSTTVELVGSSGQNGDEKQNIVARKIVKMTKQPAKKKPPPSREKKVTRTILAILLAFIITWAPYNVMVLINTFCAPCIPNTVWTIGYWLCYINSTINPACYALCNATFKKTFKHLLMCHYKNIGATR
Protocol: as §1

[3] = system: vagale Bradykardie (M₂); assay: M1/M2 selectivity in the rat: inhibition of bradycardia evoked by vagus stimulation; assay type: in vivo, THOM-Ratten; details: i.v., dose reducing vagal bradycardia (M₂) by 50%, 5 min after injection
Protocol: (§2) Die angewandte Methode wurde von Hammer und Giachetti (Life Sciences 31, 2991-2998 (1982)) beschrieben. 5 Minuten nach intravenöser Injektion steigender Dosen der Substanz wurden entweder der rechte Vagus elektrisch stimuliert (Frequenz: 25 Hz; Pulsbreite: 2ms; Reizdauer: 30s; Voltzahl: supramaximal) oder 0,3 mg/kg McN-A-343 in männliche THOM-Ratten intravenös injiziert. Die durch Vagusstimulation hervorgerufene Bradykardie und der durch McN-A-343 verursachte Blutdruckanstieg wurden bestimmt. Die Dosis der Substanzen, die entweder die vagale Bradykardie (M₂) oder den Blutdruckanstieg (M₁) um 50% verminderte, wurde graphisch ermittelt. Ergebnisse siehe Tabelle II.

[4] = system: Blutdruckanstieg (M₁); assay: M1/M2 selectivity in the rat: inhibition of blood pressure rise caused by McN-A-343; assay type: in vivo, THOM-Ratten; details: i.v., dose reducing blood pressure rise (M₁) caused by 0,3 mg/kg McN-A-343 by 50%
Protocol: as §2

[5] = system: Speichelsekretion; assay: Inhibition of pilocarpine-induced salivation in the rat; assay type: in vivo, THOM-Ratten; details: urethane-anaesthetised rat, i.v.; dose reducing saliva volume by 50%; 2 mg/kg pilocarpine s.c.
Protocol: Nach Lavy und Mulder (Arch. int. Pharmacodyn. 178, 437-445, (1969)) erhielten mit 1,2 g/kg Urethan narkotisierte männliche THOM-Ratten steigende Dosen der Substanz i.v.. Die Speichelsekretion wurde durch s.c. Gabe von 2 mg/kg Pilocarpin ausgelöst. Der Speichel wurde mit Fließpapier aufgesaugt, die von ihm eingenommene Fläche alle 5 Minuten planimetrisch bestimmt. Die Dosis der Substanz, die das Speichelvolumen um 50% verminderte, wurde graphisch ermittelt.

[6] = system: Herzfrequenz; assay: Inhibition of the acetylcholine effect on heart rate of the guinea pig; assay type: in vivo, Meerschweinchen; details: anaesthetised guinea pig; 10 µg/kg acetylcholine 5 min after test substance; heart rate (ECG)
Protocol: (§3) Am narkotisierten Meerschweinchen wurden 5 Minuten nach Gabe der Prüfsubstanz 10 µg/kg Acetylcholin intravenös als auch gleichzeitig intraarteriell injiziert. Dabei wurde die Herzfrequenz durch extrakorporale Ableitung des EKG, der Ausatemwiderstand nach Konzett-Rößler und die Kontraktion der freigelegten Harnblase direkt registriert. Für die Hemmung der Acetylcholinwirkung an den untersuchten Organen wurden Dosis-Wirkungskurven aufgenommen und daraus -log ED₅₀-Werte bestimmt. Ergebnisse siehe Tabelle III.

[7] = system: Bronchien; assay: Inhibition of the acetylcholine effect on bronchi of the guinea pig; assay type: in vivo, Meerschweinchen; details: anaesthetised guinea pig; 10 µg/kg acetylcholine 5 min after test substance; expiratory resistance (Konzett-Rößler)
Protocol: as §3, with “bestimmt.” for “bestimmt. Ergebnisse siehe Tabelle III.”

[8] = system: Blase; assay: Inhibition of the acetylcholine effect on bladder of the guinea pig; assay type: in vivo, Meerschweinchen; details: anaesthetised guinea pig; 10 µg/kg acetylcholine 5 min after test substance; contraction of exposed urinary bladder
Protocol: as §3

| SMILES | IC50 [1] [nM] | IC50 [2] [nM] | -log ED₅₀ Herz [3] [Mkg⁻¹] | -log ED₅₀ Blutdruck [4] [Mkg⁻¹] | -log ED₅₀ Salivation [5] [Mkg⁻¹] | -log ED₅₀ Herz [6] [Molkg⁻¹] | -log ED₅₀ Bronchien [7] [Molkg⁻¹] | -log ED₅₀ Blase [8] [Molkg⁻¹] |
| --- | --- | --- | --- | --- | --- | --- | --- | --- |
| O=C1Nc2cccnc2N(C(=O)CCCCCN2CCCCC2)c2ccccc21 [A, 5,11-Dihydro-11-[6-(1-piperidinyl)-1-oxohexyl]-6H-pyrido[2,3-b][1,4]benzodiazepin-6-on] | 60 | 10 | 7.75 | 6.42 | 6.65 | 6.88 | 7.49 | 6.20 |
| CCN(CC)CC1CCCCN1CC(=O)N1c2ccccc2C(=O)Nc2cccnc21 (stereo not drawn) [B, 11-[[2-[(Diethylamino)methyl]-1-piperidinyl]acetyl]-5,11-dihydro-6H-pyrido[2,3-b][1,4]benzodiazepin-6-on] | 1200 | 140 | 6.42 | 5.63 | 5.00 | 5.84 | 5.58 | 4.73 |
| CN1CCN(CC(=O)N2c3ccccc3C(=O)Nc3cccnc32)CC1 [C, 5,11-Dihydro-11-[(4-methyl-1-piperazinyl)acetyl]-6H-pyrido[2,3-b][1,4]benzodiazepin-6-on] |  |  |  |  | 6.22 | 5.85 | 6.57 | 5.36 |
| CN1[C@@H]2CC[C@H]1C[C@@H](OC(=O)C(CO)c1ccccc1)C2 (stereo partly drawn) [D, Atropin] |  |  | 7.94 | 7.34 |  | 7.70 |  | 7.03 |
